The values below come from article PMC9979715 (Blood Advances, 2022).

Structures are written as SMILES.

What is called IC50 is the concentration needed to halve the response being measured. High values mean weaker potency in that assay, low ones greater potency in that assay.

The target in the assay is T1, MAP2K7 (Homo sapiens, UniProt O14733).
T1 sequence (O14733 2-419): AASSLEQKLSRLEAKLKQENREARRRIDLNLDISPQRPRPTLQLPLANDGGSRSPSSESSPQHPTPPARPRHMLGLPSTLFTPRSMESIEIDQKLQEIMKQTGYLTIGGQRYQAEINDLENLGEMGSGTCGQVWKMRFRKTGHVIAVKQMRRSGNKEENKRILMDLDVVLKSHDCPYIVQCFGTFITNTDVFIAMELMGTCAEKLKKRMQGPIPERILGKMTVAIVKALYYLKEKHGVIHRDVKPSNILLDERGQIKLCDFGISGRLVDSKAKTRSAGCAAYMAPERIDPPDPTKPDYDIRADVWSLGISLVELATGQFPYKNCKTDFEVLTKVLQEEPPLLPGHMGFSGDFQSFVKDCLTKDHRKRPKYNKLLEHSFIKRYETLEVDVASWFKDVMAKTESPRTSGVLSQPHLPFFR
Kind of assay: ADP-Glo kinase assay, purified human MAP2K7 with dead-JNK2 substrate and ATP. Type of assay: biochemical.

Regarding `CC(=O)c1cnc2ccc(-c3cc(Cl)c(O)c(Cl)c3)nc2c1N[C@H]1CC[C@H](CN(C)C)CC1` [OTSSP167], the IC50 was 160 nM.
